From ChEMBL document CHEMBL1150678, “Bioactive sterols from the starfish Certonardoa semiregularis” (2003)
Converted amounts (≈) assume the structure as drawn.

Tests used:
Escherichia coli [1] = assay: Antimicrobial activity against Escherichia coli 1507E isolate after 18 hrs; assay type: functional
XF498 = assay: Cytotoxicity against human XF498 cells; assay type: functional; details: read-out: ED50 (the source's name)
Streptococcus pyogenes [2] = assay: Antimicrobial activity against Streptococcus pyogenes 308A isolate after 18 hrs; assay type: functional
Enterobacter cloacae [3] = assay: Antimicrobial activity against Enterobacter cloacae P99 after 18 hrs; assay type: functional
Pseudomonas aeruginosa [4] = assay: Antimicrobial activity against Pseudomonas aeruginosa 1592E isolate after 18 hrs; assay type: functional
Pseudomonas aeruginosa [5] = assay: Antimicrobial activity against Pseudomonas aeruginosa 1771 isolate after 18 hrs; assay type: functional
Escherichia coli [6] = assay: Antimicrobial activity against Escherichia coli TEM isolate after 18 hrs; assay type: functional
Streptococcus pyogenes [7] = assay: Antimicrobial activity against Streptococcus pyogenes 77A isolate after 18 hrs; assay type: functional
Klebsiella oxytoca = assay: Antimicrobial activity against Klebsiella oxytoca 1082E after 18 hrs; assay type: functional
SK-MEL-2 = assay: Cytotoxicity against human SK-MEL-2 cells; assay type: functional; details: read-out: ED50 (the source's name)
Klebsiella aerogenes = assay: Antimicrobial activity against Klebsiella aerogenes 1522E after 18 hrs; assay type: functional
Staphylococcus aureus [8] = assay: Antimicrobial activity against Staphylococcus aureus SG511 isolate after 18 hrs; assay type: functional
Enterococcus faecium = assay: Antimicrobial activity against Streptococcus faecium MD8b isolate after 18 hrs; assay type: functional
Escherichia coli [9] = assay: Antimicrobial activity against Escherichia coli DC0 isolate after 18 hrs; assay type: functional
Pseudomonas aeruginosa [10] = assay: Antimicrobial activity against Pseudomonas aeruginosa 1771M isolate after 18 hrs; assay type: functional
HCT-15 = assay: Cytotoxicity against human HCT15 cells; assay type: functional; details: read-out: ED50 (the source's name)
Staphylococcus aureus [11] = assay: Antimicrobial activity against Staphylococcus aureus 285 isolate after 18 hrs; assay type: functional
A549 = assay: Cytotoxicity against human A549 cells; assay type: functional; details: read-out: ED50 (the source's name)
Escherichia coli [12] = assay: Antimicrobial activity against Escherichia coli DC2 isolate after 18 hrs; assay type: functional
Staphylococcus aureus [13] = assay: Antimicrobial activity against Staphylococcus aureus 503 isolate after 18 hrs; assay type: functional
Salmonella typhimurium = assay: Antimicrobial activity against Salmonella Typhimurium after 18 hrs; assay type: functional, Salmonella enterica subsp. enterica serovar Typhimurium; details: Salmonella enterica
Pseudomonas aeruginosa [14] = assay: Antimicrobial activity against Pseudomonas aeruginosa 9027 isolate after 18 hrs; assay type: functional
Enterobacter cloacae [15] = assay: Antimicrobial activity against Enterobacter cloacae 1321E after 18 hrs; assay type: functional
Escherichia coli [16] = assay: Antimicrobial activity against Escherichia coli 078 isolate after 18 hrs; assay type: functional
SK-OV-3 = assay: Cytotoxicity against human SKOV3 cells; assay type: functional; details: read-out: ED50 (the source's name)

MIC (Escherichia coli [1]) [µg/mL] | MIC (Streptococcus pyogenes [2]) [µg/mL] | MIC (Enterobacter cloacae [3]) [µg/mL] | MIC (Pseudomonas aeruginosa [4]) [µg/mL] | MIC (Pseudomonas aeruginosa [5]) [µg/mL] | MIC (Escherichia coli [6]) [µg/mL] | MIC (Streptococcus pyogenes [7]) [µg/mL] | MIC (Klebsiella oxytoca) [µg/mL] | MIC (Klebsiella aerogenes) [µg/mL] | MIC (Staphylococcus aureus [8]) [µg/mL] | MIC (Enterococcus faecium) [µg/mL] | MIC (Escherichia coli [9]) [µg/mL] | MIC (Pseudomonas aeruginosa [10]) [µg/mL] | MIC (Staphylococcus aureus [11]) [µg/mL] | MIC (Escherichia coli [12]) [µg/mL] | MIC (Staphylococcus aureus [13]) [µg/mL] | Structure (SMILES) | EC50 (XF498) [µg/mL] | EC50 (SK-MEL-2) [µg/mL] | EC50 (HCT-15) [µg/mL] | EC50 (A549) [µg/mL] | other results
> 25 | 12.5 (≈ 28.8 µM) | > 25 | > 25 | 12.5 (≈ 28.8 µM) | > 25 | > 25 | > 25 | > 25 | > 25 | > 25 | > 25 | 25 (≈ 57.5 µM) | > 25 | > 25 | > 25 | CC(C)[C@@H](O)/C=C/[C@@H](C)[C@H]1C[C@@H](O)[C@H]2[C@@H]3C[C@H](O)[C@H]4C[C@@H](O)CC[C@]4(C)[C@H]3CC[C@@]21C [CERTONARDOSTEROL G] | 3.7 (≈ 8.51 µM) | 3.4 (≈ 7.82 µM) | 4 (≈ 9.2 µM) | 3.6 (≈ 8.28 µM) | MIC (Salmonella typhimurium): > 25 µg/mL; MIC (Pseudomonas aeruginosa [14]): > 25 µg/mL; MIC (Enterobacter cloacae [15]): > 25 µg/mL; MIC (Escherichia coli [16]): > 25 µg/mL; EC50 (SK-OV-3): 3.6 µg/mL (≈ 8.28 µM)
> 25 | 25 (≈ 59.4 µM) | > 25 | > 25 | 25 (≈ 59.4 µM) | > 25 | > 25 | > 25 | > 25 | > 25 | > 25 | > 25 | 25 (≈ 59.4 µM) | > 25 | > 25 | > 25 | CC(/C=C/[C@@H](C)[C@H]1C[C@@H](O)[C@H]2[C@@H]3C[C@H](O)[C@H]4C[C@@H](O)CC[C@]4(C)[C@H]3CC[C@@]21C)CO (stereo not given in full) [CERTONARDOSTEROL H] | 8.6 (≈ 20.4 µM) | 6.4 (≈ 15.2 µM) | 10.6 (≈ 25.2 µM) | 7.1 (≈ 16.9 µM) | MIC (Salmonella typhimurium): > 25 µg/mL; MIC (Pseudomonas aeruginosa [14]): > 25 µg/mL; MIC (Enterobacter cloacae [15]): > 25 µg/mL; MIC (Escherichia coli [16]): > 25 µg/mL; EC50 (SK-OV-3): 9.4 µg/mL (≈ 22.3 µM)
> 25 | 25 (≈ 52.2 µM) | > 25 | > 25 | 12.5 (≈ 26.1 µM) | > 25 | 25 (≈ 52.2 µM) | > 25 | > 25 | > 25 | > 25 | > 25 | 25 (≈ 52.2 µM) | > 25 | > 25 | > 25 | C/C(=C\[C@@H](C)[C@H]1C[C@@H](O)[C@@H]2[C@]1(C)CC[C@@H]1[C@@]3(C)CC[C@H](O)C[C@@H]3[C@@H](O)C[C@]12O)[C@H](C)[C@@H](C)CO [CERTONARDOSTEROL I] | 7.3 (≈ 15.2 µM) | 5.3 (≈ 11.1 µM) | 6.3 (≈ 13.2 µM) | 5.1 (≈ 10.7 µM) | MIC (Salmonella typhimurium): > 25 µg/mL; MIC (Pseudomonas aeruginosa [14]): > 25 µg/mL; MIC (Enterobacter cloacae [15]): > 25 µg/mL; MIC (Escherichia coli [16]): > 25 µg/mL; EC50 (SK-OV-3): 8.8 µg/mL (≈ 18.4 µM)
> 25 | 25 (≈ 54 µM) | > 25 | > 25 | 12.5 (≈ 27 µM) | > 25 | 25 (≈ 54 µM) | > 25 | > 25 | > 25 | > 25 | > 25 | 25 (≈ 54 µM) | > 25 | > 25 | > 25 | C/C(=C\[C@@H](C)[C@H]1C[C@@H](O)[C@H]2[C@@H]3C[C@H](O)[C@H]4C[C@@H](O)CC[C@]4(C)[C@H]3CC[C@@]21C)[C@H](C)[C@@H](C)CO [CERTONARDOSTEROL J] | 11.4 (≈ 24.6 µM) | 7.1 (≈ 15.3 µM) | 12.5 (≈ 27 µM) | 8 (≈ 17.3 µM) | MIC (Salmonella typhimurium): > 25 µg/mL; MIC (Pseudomonas aeruginosa [14]): > 25 µg/mL; MIC (Enterobacter cloacae [15]): > 25 µg/mL; MIC (Escherichia coli [16]): > 25 µg/mL; EC50 (SK-OV-3): 10.3 µg/mL (≈ 22.3 µM)
